# Experimental data as given in patent US8309586B2, “Glucokinase activators and pharmaceutical compositions containing the same as an active ingredient” (LG Life Sciences Ltd., priority 2007, dated 2012).
# System: Glucokinase known as hexokinase IV (human GK isoform 1, pancreas form and human GK isoform 2, liver form)
# Test: Glucokinase enzymatic activity assay (G6PDH-coupled, NADH absorbance at 340 nm)
# Assay type: biochemical
# Settings: 5 mM glucose, 1 mM ATP, 37 nM GK, 10 min at room temperature
# Protocol: Glucokinase known as hexokinase IV (human GK isoform 1, pancreas form and human GK isoform 2, liver form) was cloned into an expression vector pET15 fx (Novagen Co.), transformed to E. coli BL21 (DE3) (Invitrogen Co.) strain, expressed, and purified using a nickel column. Then, the glucokinase obtained from dialysis was used in the following assay.
# Glucokinase assay was performed by measuring absorbance according to the conventional manner. Briefly speaking, glucokinase converts the substrate glucose to glucose-6-phosphate under certain conditions, and glucose-6-phosphate dehydrogenase irreversibly converts glucose-6-phosphate to gluconate-6-phosphate. During this procedure, NADH is formed, and its absorbance is measured to calculate the enzymatic activity.
# In the measurement of the enzymatic activity, each compound was diluted by two-fold from the maximum to the minimum concentrations, and 2 μl of each solution was added to 96 well UV plate (BD bioscience). 60 μl of the first mixture (final concentrations 25 mM Hepes, 25 mM KCl, 2 mM MgCl2, 1 mM DTT) was added, and thoroughly mixed. 38 μl of the enzyme mixture (final concentrations 1 mM ATP, 1 mM NAD, 5 mM glucose, 0.85U G6PDH, 37 nM GK) was added (final volume 100 μl), and the mixture was reacted for 10 min at room temperature. The absorbance of NADH was measured at 340 nm using a UV spectrometer (Molecular Device).
# The enzyme activating abilities of the compounds according to the present invention are represented as AC1.5 (the compound concentration at which the enzymatic activity is increased by 1.5 times, nM), which is in the range of 0.001 uM to 30 uM or less, preferably 0.001 uM to 10 uM, more preferably 0.001 uM to 1 uM.
row,Compound,AC1.5 (the compound concentration at which the enzymatic activity is increased by 1.5 times)
1,"CN1CCN(C(=O)C[C@@H]2CSC(c3cc4cc(F)cc(NC5CCCC5)c4[nH]3)=N2)CC1 [Example 84, 2-[(R)-2-(7-cyclopentylamino-5-fluoro-1H-indol-2-yl)-4,5-dihydro-thiazol-4-yl]-1-(4-methyl-piperazin-1-yl)-ethanone]",27 nM
2,"OC[C@@H]1CSC(c2cc3cc(F)cc(NC4CCCC4)c3[nH]2)=N1 [Example 5, [(R)-2-(7-cyclopentylamino-5-fluoro-1H-indol-2-yl)-4,5-dihydro-thiazol-4-yl]-methanol]",7 nM
3,"OC[C@@H]1CSC(c2cc3cc(Oc4cccnc4)cc(NC4CCCC4)c3[nH]2)=N1 [Example 13, {(R)-2-[7-cyclopentylamino-5-(pyridin-3-yloxy)-1H-indol-2-yl]-4,5-dihydro-thiazol-4-yl}-methanol]",12 nM
4,"CS(=O)(=O)Cc1cc(NC2CCCC2)c2[nH]c(C3=N[C@H](CO)CS3)cc2c1 [Example 24, [(R)-2-(7-cyclopentylamino-5-methanesulfonylmethyl-1H-indol-2-yl)-4,5-dihydro-thiazol-4-yl]-methanol]",32 nM
5,"COc1cc(NC2CCCC2)c2[nH]c(C3=N[C@H](CC(=O)N4CCOCC4)CS3)cc2c1 [Example 88, 2-[(R)-2-(7-cyclopentylamino-5-methoxy-1H-indol-2-yl)-4,5-dihydro-thiazol-4-yl]-1-morpholin-4-yl-ethanone]",19 nM
6,"CC(=O)N1CCN(CC[C@@H]2CSC(c3cc4cc(CS(C)(=O)=O)cc(NC5CCCC5)c4[nH]3)=N2)CC1 [Example 72, 1-(4-{2-[(R)-2-(7-cyclopentylamino-5-methanesulfonylmethyl-1H-indol-2-yl)-4,5-dihydro-thiazol-4-yl]-ethyl}-piperazin-1-yl)-ethanone]",51 nM
7,"COc1cc(NC2CCOCC2)c2[nH]c(C3=N[C@H](CC(=O)O)CS3)cc2c1 [Example 51, {(R)-2-[5-methoxy-7-(tetrahydro-pyran-4-ylamino)-1H-indol-2-yl]-4,5-dihydro-thiazol-4-yl}-acetic acid]",167 nM
8,"O=C(C[C@@H]1CSC(c2cc3cc(Cl)cc(NC4CCCC4)c3[nH]2)=N1)N1CCOCC1 [Example 73, 2-[(R)-2-(5-chloro-7-cyclopentylamino-1H-indol-2-yl)-4,5-dihydro-thiazol-4-yl]-1-morpholin-4-yl-ethanone]",25 nM
9,"Cc1cc(NC2CCC(=O)CC2)c2[nH]c(C3=N[C@H](CC(=O)O)CS3)cc2c1 [Example 63, {(R)-2-[5-methyl-7-(4-oxo-cyclohexylamino)-1H-indol-2-yl]-4,5-dihydro-thiazol-4-yl}-acetic acid]",119 nM
10,"OC[C@@H]1CSC(c2cc3cccc(NC4CCOC4)c3[nH]2)=N1 (stereo partly drawn) [Example 3, {(R)-2-[7-(tetrahydro-furan-3-ylamino)-1H-indol-2-yl]-4,5-dihydro-thiazol-4-yl}-methanol]",184 nM
11,"COc1cc(NC2CCCC2)c2[nH]c(C3=N[C@H](CO)CS3)cc2c1 [Example 12, [(R)-2-(7-cyclopentylamino-5-methoxy-1H-indol-2-yl)-4,5-dihydro-thiazol-4-yl]-methanol]",25 nM
12,"CCOC(=O)C[C@@H]1CSC(c2cc3cc(Cl)cc(NC4CCCC4)c3[nH]2)=N1 [Example 28, [(R)-2-(5-chloro-7-cyclopentylamino-1H-indol-2-yl)-4,5-dihydro-thiazol-4-yl]acetic acid ethyl ester]",8 nM
13,"COC(=O)C[C@@H]1CSC(c2cc3cc(C)cc(NC4CCCC4)c3[nH]2)=N1 [Example 60, [(R)-2-(7-cyclopentylamino-5-methyl-1H-indol-2-yl)-4,5-dihydro-thiazol-4-yl]acetic acid methyl ester]",29 nM

# More lines, now with the values ahead:
row,AC1.5 (the compound concentration at which the enzymatic activity is increased by 1.5 times),Compound
1,60 nM,"Clc1cc(NC2CCOCC2)c2[nH]c(C3=N[C@H](CCN4CCN(c5cnccn5)CC4)CS3)cc2c1 [Example 122, (5-chloro-2-{(R)-4-[2-(2,3,5,6-tetrahydro-[1,2′]bipyrazinyl-4-yl)-ethyl]-4,5-dihydro-thiazol-2-yl}-1H-indol-7-yl)-(tetrahydropyran-4-yl)-amine]"
2,21 nM,"CN(C)CC[C@@H]1CSC(c2cc3cc(F)cc(NC4CCCC4)c3[nH]2)=N1 [Example 127, cyclopentyl-{2-[(R)-4-(2-dimethylamino-ethyl)-4,5-dihydro-thiazol-2-yl]-5-fluoro-1H-indol-7-yl}-amine]"
3,30 nM,"Cc1ncn(CC[C@@H]2CSC(c3cc4cc(Cl)cc(NC5CCCC5)c4[nH]3)=N2)c1C(=O)O [Example 110, 3-{2-[(R)-2-(5-chloro-7-cyclopentylamino-1H-indol-2-yl)-4,5-dihydro-thiazol-4-yl]-ethyl}-5-methyl-3H-imidazole-4-carboxylic acid]"
4,23 nM,"O=S1(=O)CCN(CC[C@@H]2CSC(c3cc4cc(F)cc(NC5CCOCC5)c4[nH]3)=N2)CC1 [Example 137, (2-{(R)-4-[2-(1,1-dioxo-thiomorpholin-4-yl)-ethyl]-4,5-dihydro-thiazol-2-yl}-5-fluoro-1H-indol-7-yl)-(tetrahydropyran-4-yl)-amine]"
5,71 nM,"CC(=O)N1CCN(CC[C@@H]2CSC(c3cc4cccc(Oc5ccccc5)c4[nH]3)=N2)CC1 [Example 175, 1-(4-{2-[(R)-2-(7-phenoxy-1H-indol-2-yl)-4,5-dihydro-thiazol-4-yl]-ethyl}-piperazin-1-yl)-ethanone]"
6,36 nM,"CS(=O)(=O)CC[C@@H]1CSC(c2cc3cc(F)cc(NC4CCOCC4)c3[nH]2)=N1 [Example 138, (5-fluoro-2-[(R)-4-(2-methanesulfonyl-ethyl)-4,5-dihydro-thiazol-2-yl]-1H-indol-7-yl)-(tetrahydro-pyran-4-yl)-amine]"
7,22 nM,"Clc1cc(NC2CCCC2)c2[nH]c(C3=N[C@H](CCCN4CCOCC4)CS3)cc2c1 [Example 156, {5-chloro-2-[(R)-4-(3-morpholin-4-yl-propyl)-4,5-dihydro-thiazol-2-yl]-1H-indol-7-yl}-cyclopentyl-amine]"
8,63 nM,"O=C(O)[C@@H]1CCCN1CC[C@@H]1CSC(c2cc3cc(Cl)cc(NC4CCCC4)c3[nH]2)=N1 [Example 107, (S)-1-{2-[(R)-2-(5-chloro-7-cyclopentylamino-1H-indol-2-yl)-4,5-dihydro-thiazol-4-yl]-ethyl}-pyrrolidine-2-carboxylic acid]"
9,239 nM,"O=C(C[C@@H]1CSC(c2cc3cccc(NC4CCOCC4)c3[nH]2)=N1)N1CCOCC1 [Example 93, 1-morpholin-4-yl-2-{(R)-2-[7-(tetrahydro-pyran-4-ylamino)-1H-indol-2-yl]-4,5-dihydro-thiazol-4-yl}-ethanone]"
10,13 nM,"Clc1cc(NC2CCCC2)c2[nH]c(C3=N[C@H](CCN4CCCCC4)CS3)cc2c1 [Example 104, {5-chloro-2-[(R)-4-(2-piperidin-1-yl-ethyl)-4,5-dihydro-thiazol-2-yl]-1H-indol-7-yl}-cyclopentyl-amine]"
11,10 nM,"O=C(O)CC[C@@H]1CSC(c2cc3cc(F)cc(NC4CCCC4)c3[nH]2)=N1 [Example 161, 3-[(R)-2-(7-cyclopentylamino-5-fluoro-1H-indol-2-yl)-4,5-dihydro-thiazol-4-yl]-propionic acid]"
12,15 nM,"CN(C)CC[C@@H]1CSC(c2cc3cc(Cl)cc(NC4CCCC4)c3[nH]2)=N1 [Example 94, {5-chloro-2-[(R)-4-(2-dimethylamino-ethyl)-4,5-dihydro-thiazol-2-yl]-1H-indol-7-yl}-cyclopentyl-amine]"
13,12 nM,"O=C(CC[C@@H]1CSC(c2cc3cc(Cl)cc(NC4CCCC4)c3[nH]2)=N1)NCCN1CCOCC1 [Example 153, 3-[(R)-2-(5-chloro-7-cyclopentylamino-1H-indol-2-yl)-4,5-dihydro-thiazol-4-yl]-N-(2-morpholin-4-yl-ethyl)-propionamide]"
14,178 nM,"c1ccc(Oc2cccc3cc(C4=N[C@H](CCN5CCOCC5)CS4)[nH]c23)cc1 [Example 176, 2-[(R)-4-(2-morpholin-4-yl-ethyl)-4,5-dihydro-thiazol-2-yl]-7-phenoxy-1H-indole]"
